Measurements taken from article PMC9811530 (Experimental and Clinical Endocrinology & Diabetes, 2022).
Entries after “also recorded” stand apart in the source; their conditions may differ. Like-named read-outs stand apart in the source and are kept apart here.

Key:
Metabolic parameters = assay type: in vivo, human
[1] = assay type: in vivo, human; details: for BI 187004 Plasma Cday15: 24 h after last dose; for BI 187004 Plasma Cday15 / fe0–24 / CL/F SS / fe0–24,SS / BI 187004 Plasma Cday2 / Cmax: gMean (%gCV); for BI 187004 Plasma Cday2: immediately after second dose; for CL renal / Vd/F / AUC / AUC(0-t) / half-life / Cmax / Tmax: human, oral; for CL renal: plasma and urine; for Vd/F / AUC / AUC(0-t) / half-life / Cmax / Tmax: plasma; for Tmax: t max, median (min–max)
HPA axis = assay: Total urinary corticosteroid excretion; assay type: in vivo, human
[2] = cited from earlier work
[3] = In vitro blood cell partitioning; assay type: in vitro ADME; details: 10 and 100 nmol/L, internal communication, data not shown
[4] = human, in vivo
[5] = BI 187004 concentration in subcutaneous adipose tissue biopsies; details: gMean (%gCV); for BI 187004 AT Cday15: 24 h after last dose; for BI 187004 AT Cday2: immediately after second dose
[6] = In vitro plasma protein binding; assay type: in vitro ADME; details: internal communication, data not shown
[7] = tested on: hypothalamus-pituitary-adrenal (HPA) axis; assay: Hormones of the HPA axis; assay type: in vivo, human; details: all dose groups, during treatment

SMILES: N#Cc1ccc2c(c1)[C@H]1CCCN(C(=O)c3ccc4[nH]cnc4c3)[C@H]1C2 [BI 187004]
- fasting plasma glucose over the treatment period (Metabolic parameters; 14 days): not affected
- body weight (Metabolic parameters; baseline, day 15, end-of-trial): remained unchanged; also recorded: Changes in body weight could not be observed
- BI 187004 Plasma Cday15 ([1]; 10 mg): 322 (37.4) nmol/L
- fe0–24 ([1]; 10 mg, Day 1): 5.72 (27.2) %
- CL/F SS ([1]; 10 mg, Day 14): 2.01 (28.2) L/h
- fe0–24,SS ([1]; 10 mg, Day 14): 10.3 (26.6) %
- BI 187004 Plasma Cday2 ([1]; 10 mg): 156 (56.1) nmol/L
- BI 187004 Plasma Cday15 ([1]; 20 mg): 520 (25.6) nmol/L
- fe0–24 ([1]; 20 mg, Day 1): 6.14 (20.8) %
- CL/F SS ([1]; 20 mg, Day 14): 2.53 (24.7) L/h
- fe0–24,SS ([1]; 20 mg, Day 14): 9.83 (24.1) %
- BI 187004 Plasma Cday2 ([1]; 20 mg): 291 (23.3) nmol/L
- BI 187004 Plasma Cday15 ([1]; 40 mg): 744 (25.8) nmol/L
- fe0–24 ([1]; 40 mg, Day 1): 3.82 (27.3) %
- CL/F SS ([1]; 40 mg, Day 14): 3.16 (21.1) L/h
- fe0–24,SS ([1]; 40 mg, Day 14): 6.31 (26.7) %
- BI 187004 Plasma Cday2 ([1]; 40 mg): 511 (23.9) nmol/L
- BI 187004 Plasma Cday15 ([1]; 80 mg): 1,360 (24.8) nmol/L
- fe0–24 ([1]; 80 mg, Day 1): 4.15 (39.3) %
- CL/F SS ([1]; 80 mg, Day 14): 3.97 (26.4) L/h
- fe0–24,SS ([1]; 80 mg, Day 14): 6.05 (27.0) %
- BI 187004 Plasma Cday2 ([1]; 80 mg): 1,020 (30.0) nmol/L
- BI 187004 Plasma Cday15 ([1]; 160 mg): 2,430 (54.7) nmol/L
- fe0–24 ([1]; 160 mg, Day 1): 5.12 (11.6) %
- CL/F SS ([1]; 160 mg, Day 14): 3.69 (37.9) L/h
- fe0–24,SS ([1]; 160 mg, Day 14): 6.82 (21.6) %
- BI 187004 Plasma Cday2 ([1]; 160 mg): 1,660 (57.7) nmol/L
- BI 187004 Plasma Cday15 ([1]; 240 mg): 2,280 (76.0) nmol/L
- fe0–24 ([1]; 240 mg, Day 1): 4.87 (24.4) %
- fe0–24,SS ([1]; 240 mg, Day 14): 5.83 (22.7) %
- BI 187004 Plasma Cday2 ([1]; 240 mg): 2,420 (50.6) nmol/L
- BI 187004 Plasma Cday15 ([1]; 360 mg): 2,780 (19.6) nmol/L
- fe0–24 ([1]; 360 mg, Day 1): 5.11 (22.4) %
- CL/F SS ([1]; 360 mg, Day 14): 6.47 (12.3) L/h
- fe0–24,SS ([1]; 360 mg, Day 14): 6.46 (8.01) %
- BI 187004 Plasma Cday2 ([1]; 360 mg): 2,660 (36.5) nmol/L
- dose proportionality of Cmax and AUCτ,ss ([1]; 10 to 360 mg): increased non-proportionally
- time of absorption ([1]; 10–360 mg): ≤ 2 h
- gMean oral clearance (CL/F,ss), range over dose groups ([1]; 10–360 mg, day 14): 2.01 to 6.47 L/h
- accumulation in plasma ([1]; between days 1 and 14): limited
- CL renal ([1]; 10 mg): 3.72 mL/min
- CL renal ([1]; 20 mg): 4.3 mL/min
- CL renal ([1]; 40 mg): 2.68 mL/min
- CL renal ([1]; 80 mg): 3.47 mL/min
- CL renal ([1]; 160 mg): 3.78 mL/min
- CL renal ([1]; 240 mg): 4.38 mL/min
- CL renal ([1]; 360 mg): 6.4 mL/min
- Vd/F [1]: 195 to 1160 L
- AUC ([1]; 10 mg): 14.5 µM·h
- AUC(0-t) ([1]; 10 mg): 7.5 µM·h
- Vd/F ([1]; 10 mg): 308 L
- half-life ([1]; 10 mg): 106 h
- Cmax ([1]; 10 mg, C max, 10 mg, Day 1): 0.681 µM
- Cmax ([1]; 10 mg, C max,SS, 10 mg, Day 14): 1.24 µM
- Tmax ([1]; 10 mg, 10 mg, Day 1): 2 h
- Tmax ([1]; 10 mg, SS, 10 mg, Day 14): 0.834 h
- AUC ([1]; 20 mg): 23 µM·h
- AUC(0-t) ([1]; 20 mg): 13.9 µM·h
- Vd/F ([1]; 20 mg): 253 L
- half-life ([1]; 20 mg): 69.2 h
- Cmax ([1]; 20 mg, C max, 20 mg, Day 1): 1.37 µM
- Cmax ([1]; 20 mg, C max,SS, 20 mg, Day 14): 1.94 µM
- Tmax ([1]; 20 mg, 20 mg, Day 1): 0.834 h
- Tmax ([1]; 20 mg, SS, 20 mg, Day 14): 0.834 h
- AUC ([1]; 40 mg): 26.9 µM·h
- AUC(0-t) ([1]; 40 mg): 27.7 µM·h
- Vd/F ([1]; 40 mg): 195 L
- half-life ([1]; 40 mg): 42.8 h
- Cmax ([1]; 40 mg, C max, 40 mg, Day 1): 2.92 µM
- Cmax ([1]; 40 mg, C max,SS, 40 mg, Day 14): 3.4 µM
- Tmax ([1]; 40 mg, 40 mg, Day 1): 1 h
- Tmax ([1]; 40 mg, SS, 40 mg, Day 14): 0.834 h
- AUC ([1]; 80 mg): 58.8 µM·h
- AUC(0-t) ([1]; 80 mg): 46.5 µM·h
- Vd/F ([1]; 80 mg): 346 L
- half-life ([1]; 80 mg): 60.3 h
- Cmax ([1]; 80 mg, C max, 80 mg, Day 1): 4.32 µM
- Cmax ([1]; 80 mg, C max,SS, 80 mg, Day 14): 4.93 µM
- Tmax ([1]; 80 mg, 80 mg, Day 1): 0.834 h
- Tmax ([1]; 80 mg, SS, 80 mg, Day 14): 1.25 h
- AUC ([1]; 160 mg): 127 µM·h
- AUC(0-t) ([1]; 160 mg): 106 µM·h
- Vd/F ([1]; 160 mg): 230 L
- half-life ([1]; 160 mg): 43.1 h
- Cmax ([1]; 160 mg, C max, 160 mg, Day 1): 11.5 µM
- Cmax ([1]; 160 mg, C max,SS, 160 mg, Day 14): 12.1 µM
- Tmax ([1]; 160 mg, 160 mg, Day 1): 1 h
- Tmax ([1]; 160 mg, SS, 160 mg, Day 14): 0.667 h
- AUC ([1]; 240 mg): 145 µM·h
- AUC(0-t) ([1]; 240 mg): 130 µM·h
- Vd/F ([1]; 240 mg): 359 L
- half-life ([1]; 240 mg): 51.5 h
- Cmax ([1]; 240 mg, C max, 240 mg, Day 1): 14.6 µM
- Cmax ([1]; 240 mg, C max,SS, 240 mg, Day 14): 15 µM
- Tmax ([1]; 240 mg, 240 mg, Day 1): 1 h
- Tmax ([1]; 240 mg, SS, 240 mg, Day 14): 0.667 h
- AUC ([1]; 360 mg): 162 µM·h
- AUC(0-t) ([1]; 360 mg): 140 µM·h
- Vd/F ([1]; 360 mg): 1160 L
- half-life ([1]; 360 mg): 124 h
- Cmax ([1]; 360 mg, C max, 360 mg, Day 1): 14.3 µM
- Cmax ([1]; 360 mg, C max,SS, 360 mg, Day 14): 15.5 µM
- Tmax ([1]; 360 mg, 360 mg, Day 1): 1 h
- Tmax ([1]; 360 mg, SS, 360 mg, Day 14): 1.5 h
- clinical laboratory evaluations and vital signs (Safety and tolerability; 10–360 mg over 14 days): no notable findings
- hypoglycemic episodes (Safety and tolerability; 10–360 mg over 14 days): No hypoglycemic episodes were reported
- intensity of AEs (Safety and tolerability; all dose groups): mild or moderate intensity
- serious AE or death (Safety and tolerability; during the trial): No serious AE or death occurred
- AE leading to discontinuation of treatment (Safety and tolerability; one patient, 360 mg, day 6, drug-related, moderate intensity): supraventricular tachycardia
- pollakiuria (AE) (Safety and tolerability; total BI 187004 group (6 patients, all 80–360 mg)): 10.7%
- gastrointestinal disorders (AE) (Safety and tolerability; total BI 187004 group (9 patients)): 16.1%
- nervous system disorders (only disorder: headache) (Safety and tolerability; total BI 187004 group (11 patients)): 19.6%
- frequency of patients reported with any AE (Safety and tolerability; total BI 187004 group (33 patients)): 58.9%
- incidence of drug-related adverse events (Safety and tolerability; total BI 187004 group, 10–360 mg once daily over 14 days (n=29)): 51.8%
- total urinary corticosteroid excretion, % of baseline, range over dose groups (HPA axis; after 14 days of treatment): 176.2–253.5%
- total urinary corticosteroid excretion increased to (HPA axis; highest dose-group value): 253.5%
- increase in total urinary corticosteroid excretion (HPA axis; multiple doses, 14 days): 2.48 fold
- drug-related AEs ([2]; SRD study, healthy volunteers): 16.7%
- half-life ([2]; single dose 5 mg, healthy volunteers): 33.5 h
- half-life ([2]; single dose 360 mg, healthy volunteers): 13.9 h
- increase of total urinary corticosteroid excretion ([2]; single doses 2.5–360 mg): up to 2 fold
- blood cell partitioning [3]: no difference in blood cell partitioning at low concentrations
- general disorders and administration site conditions (AE, system organ class) [4]: 14.3%
- BI 187004 AT Cday15 ([5]; 10 mg): 45.5 (37.0) nmol/L
- BI 187004 AT Cday2 ([5]; 10 mg): 34.5 (38.3) nmol/L
- BI 187004 AT Cday15 ([5]; 20 mg): 66.1 (25.5) nmol/L
- BI 187004 AT Cday2 ([5]; 20 mg): 51.8 (83.7) nmol/L
- BI 187004 AT Cday15 ([5]; 40 mg): 74.2 (29.6) nmol/L
- BI 187004 AT Cday2 ([5]; 40 mg): 142 (72.1) nmol/L
- BI 187004 AT Cday15 ([5]; 80 mg): 140 (28.4) nmol/L
- BI 187004 AT Cday2 ([5]; 80 mg): 142 (55.9) nmol/L
- BI 187004 AT Cday15 ([5]; 160 mg): 238 (56.6) nmol/L
- BI 187004 AT Cday2 ([5]; 160 mg): 518 (65.7) nmol/L
- BI 187004 AT Cday15 ([5]; 240 mg): 245 (62.8) nmol/L
- BI 187004 AT Cday2 ([5]; 240 mg): 872 (54.6) nmol/L
- BI 187004 AT Cday15 ([5]; 360 mg): 454 (29.3) nmol/L
- BI 187004 AT Cday2 ([5]; 360 mg): 925 (41.7) nmol/L
- plasma protein binding [6]: no increase in plasma protein binding down to 10 nmol/L
- mean ACTH levels [7]: increased but within the normal range
